These results are taken from PMC5096464 (Journal of the American Chemical Society, 2016).

In one experiment the target is T1, WT PafA (Elizabethkingia meningoseptica, UniProt Q9KJX5).
T1 sequence (Q9KJX5 26-546): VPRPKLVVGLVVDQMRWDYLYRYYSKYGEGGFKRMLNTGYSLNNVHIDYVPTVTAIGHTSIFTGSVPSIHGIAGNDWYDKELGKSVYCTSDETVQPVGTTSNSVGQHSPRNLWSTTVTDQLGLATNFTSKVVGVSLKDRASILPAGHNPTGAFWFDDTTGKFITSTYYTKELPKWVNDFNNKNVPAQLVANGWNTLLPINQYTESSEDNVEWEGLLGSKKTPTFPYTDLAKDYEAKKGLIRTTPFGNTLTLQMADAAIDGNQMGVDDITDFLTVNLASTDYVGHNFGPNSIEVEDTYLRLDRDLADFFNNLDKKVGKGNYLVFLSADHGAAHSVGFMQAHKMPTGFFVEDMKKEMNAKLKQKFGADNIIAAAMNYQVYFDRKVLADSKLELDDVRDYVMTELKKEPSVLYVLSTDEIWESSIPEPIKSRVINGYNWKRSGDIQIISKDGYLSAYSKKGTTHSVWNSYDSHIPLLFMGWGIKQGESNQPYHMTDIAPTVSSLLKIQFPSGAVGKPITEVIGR
Put plainly: biochemical. Conditions: pH 8.0, subsaturating me-pNPP.

For a further experiment, the target named is T2, T79S PafA (Elizabethkingia meningoseptica, UniProt Q9KJX5, T79S).
T2 sequence (Q9KJX5 26-546 T79S): T1 sequence (Q9KJX5 26-546) with T54S
As to the kind of experiment: biochemical. The settings on record: pH 8.0, subsaturating me-pNPP.

The target in another experiment is T3, N100A PafA (Elizabethkingia meningoseptica, UniProt Q9KJX5, N100A).
T3 sequence (Q9KJX5 26-546 N100A): T1 sequence (Q9KJX5 26-546) with N75A
Put plainly: biochemical. The settings on record: pH 8.0, subsaturating me-pNPP.

The next experiment addresses T4, K162A PafA (Elizabethkingia meningoseptica, UniProt Q9KJX5, K162A).
T4 sequence (Q9KJX5 26-546 K162A): T1 sequence (Q9KJX5 26-546) with K137A
As to the kind of experiment: biochemical. Conditions: pH 8.0, subsaturating me-pNPP.

The next experiment deals with T5, R164A PafA (Elizabethkingia meningoseptica, UniProt Q9KJX5, R164A).
T5 sequence (Q9KJX5 26-546 R164A): T1 sequence (Q9KJX5 26-546) with R139A
As to the kind of experiment: biochemical. The settings on record: pH 8.0, subsaturating me-pNPP.

For experiment [1], the system named is EcAP. The settings on record: EcAP vs PafA.
In experiment [2] the target is EcAP. The settings on record: ref 39 and 57; cited from earlier work.

Molecules are shown by their SMILES. Substitutions are numbered along the chain they refer to. A value given as a limit tells only on which side of the number the result lay.

For `[O]=[V]([OH])([OH])[OH]` [vanadate], the Ki on WT PafA stood at 0.67 µM; on T79S PafA, 90 µM; at N100A PafA, 190 µM; at K162A PafA it was 79 µM; on R164A PafA, 300 µM.

For the molecule `O=P(O)(O)O` [Pi, inorganic phosphate], the “product inhibition of EcAP stronger than that for PafA” value in the experiment with EcAP [1] is “more than 3 orders of magnitude”. Also, the “Ki (product inhibition)” value on EcAP [2] was “low micromolar”. Further, the Ki at WT PafA was 830 µM; at T79S PafA, 9.6 µM; at N100A PafA, 1300 µM; on K162A PafA, 4700 µM; on R164A PafA it was above 13000 µM.

For the molecule `[O]=[W](=[O])([OH])[OH]` [tungstate], the inhibition constant Ki on WT PafA was 3.9 µM; at T79S PafA it was 280 µM; on N100A PafA it was 570 µM; on K162A PafA, above 13000 µM; at R164A PafA, 1300 µM.

As usually defined, the Ki is the dissociation constant of the complex between target and ligand, obtained from inhibition or displacement.
